According to patent EP0732331A1, “Novel benzothiophene compounds and methods for inhibiting lipoxygenase and leukotrienes” (ELI LILLY AND COMPANY, priority 1995, dated 1996):
Read-outs that look alike come from different tables or passages of the source.

How the values were obtained:
[1] = test system: production of LTC4 by the cytokine dependent mast cell line MCII; experiment: MCII Mast Cell LTC4 Assay; format: cell-based, mouse; details: read-out: LTC4
From the text: This assay measures the production of LTC4 by the cytokine dependent mast cell line MCII, stimulated by cross linking the high affinity Fc receptor for IgE (FcεR1).
The bone marrow derived, cytokine dependent mouse mast cell line MCII (Lilly Research Laboratories) is maintained in log phase growth in complete Dulbecco's' Modified Eagles Medium (GIBCO BRL) supplemented with fetal bovine serum (Hyclone), gentamicin, penicillin and streptomycin (GIBCO BRL) and using concanavalin A (ICN ImmunoBiologicals) induced culture supernatants from the mouse helper T cell clone D10.G4 (ATCC TIB 224) as a source of mast cell growth factors. The MCII cells are passively sensitized with mouse monoclonal IgE by incubation with an appropriate dilution of IgEL b4 (ATCC TIB 141) antibody ascites at 37° C for 60 minutes and then washed with Hank's Balanced Salt Solution (GIBCO BRL) to remove unbound IgE. The sensitized cells are then preincubated with drug in complete media for 10 minutes at 37° C in 96 well polypropylene plates (Costar). Each drug concentration is tested in triplicate at half log dilutions. The drug vehicle is dimethyl sulfoxide which is present at a final concentration of 0.32% in all wells.
There are 40,000 MCII cells per well in a final volume of 200 µl complete medium. The stimulated cells are incubated at 37° C for 10 minutes and then LTC4 production is stopped by addition of 25 µl of 180 mM EDTA to chelate extracellular Ca^++.
The amount of LTC4 produced is determined in a competitive enzyme immunoassay (EIA) using commercial reagents purchased from Cayman Chemical Co. In the EIA, free LTC4 in the sample competes with enzyme conjugated LTC4 for binding to immobilized anti-LTC4 antibody. The enzyme conjugated to LTC4 is acetylcholinesterase and Elman's reagent is the substrate for the enzyme. The concentration of LTC4 in the unknown sample is determined using a 4-parameter quadratic analysis of a standard curve generated by measuring the optical density resulting from the addition of known amounts of LTC4 to the EIA.
The positive control on each plate is stimulated MCII cells with dimethyl sulfoxide vehicle alone and the negative control is the same reaction mixture without cells. The background negative control value is subtracted from experimental and positive control values and the data are reported as percent of positive control.

MCII cells = experiment: MCII Mast Cell Toxicity Assay (XTT); format: cell-based; details: Mus musculus, read-out: Toxicity
From the text: This toxicity assay is run in parallel with the MCII mast cell LTC4 assay and serves as an indicator of compound effects on the viability and metabolic activity of the MCII cells. This "toxicity" assay is based on the ability of dehydrogenase enzymes present in viable metabolically active cells to bioreduce the tetrazolium salt XTT yielding a colored, water soluble formazan product. (see, Roehm et al.) "An improved colorimetric assay for cell proliferation and viability utilzing the tetrazolium salt XTT. J. Immunol. Methods 142:257-65 (1991).
A duplicate polystyrene 96-well tissue culture plate (Costar) is set up with sensitized MCII cells, EM95 ascites, media and dilutions of the test compound as described above. The complete media is supplemented with concanavalin A induced culture supernatants from the mouse helper T cell clone D10.G4, as a source of mast cell growth factors.
Wells of the toxicity assay plate are pulsed with 25 µl XTT (Sigma) plus phenazine methosulfate (Aldrich) giving a final concentration of 0.2 mg/ml XTT and 25 µM phenazine methosulfate. The plates are incubated at 37° C in 10% CO2 for 4-12 hours and then production of the XTT formazan product determined by measuring the optical density of the wells at a wavelength of 450 nm. The positive control on each plate is stimulated MCII cells with dimethyl sulfoxide vehicle alone and the negative control is the same reaction mixture without cells. The background negative control value is subtracted from experimental and positive control values and the data are reported as percent of positive control.

[2] = test system: production of leukotriene B4 (LTB4); experiment: Inhibition of Eicosanoid Production by Plasma-depleted Blood: LTB4; format: cell-based; details: Homo sapiens, read-out: LTB4
Procedure: (§1) Compounds are evaluated for their ability to inhibit production of leukotriene B4 (LTB4) and thromboxane B2 (TxB2) upon stimulation of human plasma-depleted blood with formyl-methionyl-leucyl-phenylalanine (FMLP) and thrombin. LTB4 is produced by neutrophils and TxB2 by platelets stimulated at their respective receptors with FMLP and thrombin. The assay is carried out in 1 ml deep well polypropylene 96-well plates (Beckman). For the test, ten ml of blood is collected in EDTA at a final concentration of 1.5 mg/ml. Then, 40 ml glucose phosphate buffer containing 0.1% gelatin is added and the suspension centrifuged at 900 g for 10 minutes at room temperature. The supernatant is discarded and the cells washed once with 50 ml buffer before resuspending them in 50 ml Krebs-Ringers-Henseleit Buffer containing 0.1% gelatin, 1 mM CaCl2, 1.1 mM MgCl2 (KRH buffer). Working solutions of test compounds are made by dissolving the material in DMSO at 10 mM and diluting with appropriate amounts of KRH buffer. An agonist solution is made containing 1 µM FMLP (sigma) and 10 units/ml of thrombin in KRH buffer (Enzyme Research Labs). The blood cell suspension is first warmed to 37° C for 5 minutes and then mixed with cytochalasin B (sigma) at a final concentration of 2 µg/ml. In each well, 200 µl of the compound solution is incubated with 250 µl of the blood cell, cytochalasin B suspension at 37° C for 10 min. Stimulation of eicosanoid production is begun by adding 50 µl of the agonist solution. The mixture is then incubated for 2 min. before stopping the reaction by adding 50 µl of a solution containing 275 mM EDTA, 110 µM indomethacin (sigma) and 110 µM of the 5-lipoxygenase inhibitor, N-hydroxy-N-[3-[2-(2-propynylthio)phenyl]-2-propenyl]urea. Subsequently, the plate is centrifuged and an aliquot of the supernatant fluid removed for analysis of the eicosanoid content. The amount of LTB4 and TxB2 produced is determined by the use of a competitive enzyme immunoassay using commercial reagents from Cayman Chemical.

[3] = test system: production of thromboxane B2 (TxB2); experiment: Inhibition of Eicosanoid Production by Plasma-depleted Blood: TxB2; format: cell-based; details: Homo sapiens, read-out: TxB2
Procedure: as §1

cPLA2 = biological target: T1, cPLA2 (Homo sapiens, UniProt P47712); experiment: Chromogenic cPLA2 enzyme assay; format: biochemical; details: C-PLA2 Enzyme
T1 sequence (P47712 1-749): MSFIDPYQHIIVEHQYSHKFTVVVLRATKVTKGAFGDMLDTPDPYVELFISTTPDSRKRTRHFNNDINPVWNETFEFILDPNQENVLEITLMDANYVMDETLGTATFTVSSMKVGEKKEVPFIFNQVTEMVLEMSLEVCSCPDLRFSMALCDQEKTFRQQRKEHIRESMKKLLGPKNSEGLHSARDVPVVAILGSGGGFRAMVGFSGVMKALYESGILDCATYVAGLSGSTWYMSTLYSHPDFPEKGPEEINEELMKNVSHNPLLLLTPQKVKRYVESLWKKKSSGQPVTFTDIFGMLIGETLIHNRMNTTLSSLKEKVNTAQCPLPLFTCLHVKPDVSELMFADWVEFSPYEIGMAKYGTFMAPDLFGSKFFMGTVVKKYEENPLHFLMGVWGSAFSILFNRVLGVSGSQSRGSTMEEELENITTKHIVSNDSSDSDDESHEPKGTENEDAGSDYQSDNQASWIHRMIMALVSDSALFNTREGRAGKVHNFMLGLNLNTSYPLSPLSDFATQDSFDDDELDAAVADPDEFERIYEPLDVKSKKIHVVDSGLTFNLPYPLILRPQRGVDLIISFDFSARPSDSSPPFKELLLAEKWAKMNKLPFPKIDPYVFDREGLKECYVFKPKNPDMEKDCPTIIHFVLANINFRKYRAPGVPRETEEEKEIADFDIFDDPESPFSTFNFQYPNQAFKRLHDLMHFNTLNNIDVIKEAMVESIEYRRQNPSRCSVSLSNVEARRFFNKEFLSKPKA

cytosolic 5-lipoxygenase = biological target: T2, cytosolic 5-lipoxygenase (Homo sapiens, UniProt P09917); experiment: 5-Lipoxygenase (5-LPO) Assay; format: biochemical; details: inhibition of leukotriene B4; human neutrophil 20,000 x g supernatant; 5 minutes at 37°C
T2 construct: Cells are disrupted with sonication and the cytosolic fraction obtained by centrifugation at 20,000 x g; from tissue; host or cells: human peripheral blood neutrophils, 20,000 x g cytosolic supernatant
T2 sequence (P09917 1-674): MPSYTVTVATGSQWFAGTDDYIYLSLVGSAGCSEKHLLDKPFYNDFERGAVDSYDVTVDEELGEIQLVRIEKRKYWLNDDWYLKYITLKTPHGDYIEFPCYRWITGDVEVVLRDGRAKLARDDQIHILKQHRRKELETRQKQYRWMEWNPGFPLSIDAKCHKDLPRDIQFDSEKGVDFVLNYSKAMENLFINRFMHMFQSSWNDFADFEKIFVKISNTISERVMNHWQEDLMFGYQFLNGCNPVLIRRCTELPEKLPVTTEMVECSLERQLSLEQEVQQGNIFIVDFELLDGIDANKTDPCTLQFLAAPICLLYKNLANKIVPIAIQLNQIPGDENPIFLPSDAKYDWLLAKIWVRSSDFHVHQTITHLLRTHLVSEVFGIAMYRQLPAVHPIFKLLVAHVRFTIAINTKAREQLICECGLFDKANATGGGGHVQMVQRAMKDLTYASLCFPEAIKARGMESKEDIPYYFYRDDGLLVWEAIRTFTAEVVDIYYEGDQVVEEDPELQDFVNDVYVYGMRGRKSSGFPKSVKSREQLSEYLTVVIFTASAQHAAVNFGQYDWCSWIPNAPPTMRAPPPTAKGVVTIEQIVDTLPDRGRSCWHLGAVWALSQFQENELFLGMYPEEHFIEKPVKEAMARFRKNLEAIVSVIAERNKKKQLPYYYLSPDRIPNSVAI
Procedure: To determine the effect of compounds on 5-lipoxygenase activity, peripheral blood neutrophils are separated by density centrifugation as described (Marder et al., Prostaglandins Leukot. and Essent. Fatty Acids 46 , 265-270, 1992) and the cytosolic 5-lipoxygenase is prepared from isolated neutrophils according to a modification of Carter et al., (J. Pharmacol. Exp. Ther. 256 , 929-937 (1991)). Briefly, neutrophils are washed twice in buffer (in millimolar: PIPES, 10; BES, 10; and EDTA, 1; pH 6.8) and diluted to 2.5 x 10^7 cells/ml. Cells are disrupted with sonication and the cytosolic fraction obtained by centrifugation at 20,000 x g for 20 min. at 4°C. The resultant supernatant containing the cytosolic 5-lipoxygenase activity is stored frozen at -70°C prior to use. Compounds are evaluated for 5-lipoxygenase inhibitory activity. Varying concentration of compounds in 200 ml aliquots containing 50 ml of human 20,000 x g supernatant in assay buffer (in millimolar: PIPES, 10; BES, 10; EDTA, 1; NaCl, 100; ATP, 1.56; and CaCl2,, 2.5; pH 6.8) containing 3.0 mM AA are used. The reaction proceeds for 5 minutes at 37°C and is terminated upon the addition of 50 ml EDTA (250 mM). The percent inhibition of leukotriene B4 is determined for each concentration of test compound as compared to vehicle (containing no compound) control. […] Leukotriene B4 is determined by EIA.

[4] = MCII Mast Cell, IgE-sensitized, stimulated with anti-mouse IgE EM95
[5] = MCII Mast Cell, XTT reduction, 4-12 hours
[6] = Plasma DPLTD Blood, stimulated with FMLP and thrombin

| Compound | IC50 ([1]; Mus musculus, Mast cell) [nM] | IC50 [1, 4] [nM] | IC50 (MCII cells; [5]) [nM] | IC50 [2, 6] [nM] | IC50 [3, 6] [nM] | also measured |
| --- | --- | --- | --- | --- | --- | --- |
| O=C(c1ccccc1)c1c(-c2ccc(O)cc2)sc2cc(O)ccc12 [Compound A] | 7100 ± 500 | – | – | – | – | IC50 (MCII cells; Mast cell): 300 nM; IC50 [2]: 500 nM; IC50 [3]: 4900 nM |
| Oc1ccc(-c2cc3ccc(O)cc3s2)cc1 [Compound B] | – | 700 | < 10000 | 800 | 3300 | IC50 (cPLA2): > 200000 nM |
| COc1ccc(C(=O)c2c(-c3ccc(OC)cc3)sc3cc(OC)ccc23)cc1 [Compound C] | – | 6700 ± 3000 | – | 1500 ± 400 | 2000 ± 600 | IC50 (cytosolic 5-lipoxygenase): > 10000 nM |
| O=C(c1ccc(O)cc1)c1c(-c2ccc(O)cc2)sc2cc(O)ccc12 [Compound D] | – | – | – | – | – | IC50 [2]: 1600 nM; IC50 [3]: > 9800 nM |
| O=C(c1ccc(-c2ccccc2)cc1)c1c(-c2ccc(O)cc2)sc2cc(O)ccc12 [Example 1] | – | 4400 | > 10000 | 2200 ± 400 | 2400 ± 1200 | – |
| O=C(c1cccc2ccccc12)c1c(-c2ccc(O)cc2)sc2cc(O)ccc12 [Example 2, 6-hydroxyphenyl-2-(p-hydroxyphenyl)-(benzo(B)thien-3-yl)(α-napthyl)methanone] | – | 500 ± 200 | > 10000 | 200 ± 100 | 4900 ± 2400 | IC50 (cPLA2): > 200000 nM |
| O=C(c1ccc2ccccc2c1)c1c(-c2ccc(O)cc2)sc2cc(O)ccc12 [Example 3, 6-hydroxyphenyl-2-(p-hydroxyphenyl)-(benzo(B)thien-3-yl)(β-napthyl)methanone] | – | 3900 ± 1800 | > 10000 | 200 | 1400 | – |
| COc1ccc(-c2sc3cc(OC)ccc3c2C(=O)c2cc(OC)c(O)c(OC)c2)cc1 [Example 7A] | 1500 ± 300 | – | – | – | – | – |
| CC(C)(C)c1ccc(C(=O)c2c(-c3ccc(O)cc3)sc3cc(O)ccc23)cc1 [Example 8] | – | 3500 ± 2100 | – | – | – | – |
| Cc1ccc(C(=O)c2c(-c3ccc(O)cc3)sc3cc(O)ccc23)cc1 [Example 9] | 800 ± 500 | – | – | – | – | – |
| Cc1cccc(C(=O)c2c(-c3ccc(O)cc3)sc3cc(O)ccc23)c1 [Example 10] | 1100 ± 200 | – | – | – | – | – |
| O=C(c1cccc(O)c1)c1c(-c2ccc(O)cc2)sc2cc(O)ccc12 [Example 11] | 2700 | – | – | – | – | – |
| CC(c1cc2ccccc2s1)N(O)C(N)=O (stereo not shown) [Zileuton, (I)-N-(1-benzo[B]thien-2-ylethyl)-N-hydroxyurea, reference compound] | 500 ± 300 | – | – | – | – | – |
